Source: patent US20240139327A1, “PRODRUG COMPOUND, PREPARATION METHOD THEREFOR AND USE THEREOF” (MINGHUI PHARMACEUTICAL (HANGZHOU) LIMITED, priority 2021, published 2024)
Read-outs that look alike come from different tables or passages of the source.

Test: Skin-Pampa assay
Assay type: in vitro ADME
Conditions: for Multiplicity (relative to the prototype drug): Skin-Pampa Pe of prodrug relative to its prototype drug
Procedure: • 1. Hydrate the Skin-Pampa membrane with hydration solution overnight. • 2. Dissolve each compound to be tested in DMSO and prepare 0.5 mL 20 mM solutions of the test compounds. Take 50 uL of solutions of the test compounds to the corresponding 5 mL of donor solution and mix well. • 3. Add 200 μL of the sample solution to the donor (bottom) plate and add 200 μL of acceptor solution into the wells of the acceptor (TOP) plate, and 12 wells are incubated in parallel for each sample. • 4. After 7 hours of incubation, 100 μL of the sample in each of the donor plate and 100 μL of the sample in each of the acceptor plate were sampled and then added with 200 μL of dilution (50% acetonitrile aqueous solution), mixed by vortexing and centrifuged, 200 μL of the supernatant was used for HPLC content detection. • 5. The Skin-Pampa parameters are calculated according to the following equation
[formula] [formula] • Pe—effective permeability coefficient; • VA— the volume of acceptor well (ml); • VD— the volume of donorwell (ml); • A—the filtration area (cm^2); • t—the incubation time (s); • tLAG—the steady-state time (s); • CD(t)—the concentration of the compound in donorwell at t; • CA(t)—the concentration of the compound in acceptor well at t; • CD(0)—the concentration at the compound in donorwell at 0.

[1] = Skin-Pampa, 7 hours of incubation, 12 wells in parallel, HPLC detection
[2] = Skin-Pampa, 7 hours of incubation, 12 wells in parallel, HPLC detection, read-out: Pe (effective permeability coefficient)

Multiplicity (relative to the prototype drug) | LogPe [1] | Papp at 7 h, 200 µM [2] | Compound | Papp at 7 h, 200 µM (PAMPA) | LogPe (PAMPA, 7 h, 200 µM)
6.88-8.15 | −5.56 ± 0.16 | 2.78 ± 1.13 ×10⁻⁶ cm/s | CCCCCCCCCCCC(=O)OCn1ccc2c(N(C)[C@H]3CN(C(=O)CC#N)CC[C@H]3C)ncnc21 [Example 5] |  | 
6.81-8.83 | −6.09 ± 0.19 | 0.81 ± 0.28 ×10⁻⁶ cm/s | CCCCC(CC)CCC(=O)OCn1ccc2c1ncc1ncc([C@H]3CN(C(=O)NCC(F)(F)F)C[C@H]3CC)n12 (stereo partly shown) [Example 14] |  | 
 | −5.73 ± 0.06 | 1.84 ± 0.24 ×10⁻⁶ cm/s | CN1C(C(=O)Nc2ccccn2)=C(O)c2ccccc2S1(=O)=O [Piroxicam, reference compound] |  | 
5.8-19.5 | −5.90 ± 0.20 | 1.26 ± 0.48 ×10⁻⁶ cm/s | CCCCC(CC)CCC(=O)OCn1ccc2c(-c3cnn(C4(CC#N)CN(C5CCN(C(=O)c6ccnc(C(F)(F)F)c6F)CC5)C4)c3)ncnc21 (stereo not shown) [Example 15] |  | 
5.29-7.67 | −5.66 ± 0.08 | 2.19 ± 0.35 ×10⁻⁶ cm/s | CCCCCCCCCC(=O)OCn1ccc2c(N(C)[C@H]3CN(C(=O)CC#N)CC[C@H]3C)ncnc21 [Example 8] |  | 
 | −7.06 ± 0.33 | 0.11 ± 0.06 ×10⁻⁶ cm/s | NC(=O)c1cnc2[nH]ccc2c1N[C@@H]1[C@@H]2CC3C[C@H]1C[C@@](O)(C3)C2 [Peficitinib, reference compound] |  | 
 | −6.88 ± 0.34 | 0.13 ± 0.17 ×10⁻⁶ cm/s | N#CCC1(n2cc(-c3ncnc4[nH]ccc34)cn2)CN(C2CCN(C(=O)c3ccnc(C(F)(F)F)c3F)CC2)C1 [Itacitinib, reference compound] |  | 
 | −6.45 ± 0.14 | 0.36 ± 0.12 ×10⁻⁶ cm/s | C[C@@H]1CCN(C(=O)CC#N)C[C@@H]1N(C)c1ncnc2[nH]ccc12 [Tofacitinib, reference compound] |  | 
8.25-8.92 | −5.50 ± 0.17 | 3.13 ± 1.15 ×10⁻⁶ cm/s | CCCCC(CC)CCC(=O)OCn1ccc2c(N(C)[C@H]3CN(C(=O)CC#N)CC[C@H]3C)ncnc21 (stereo partly shown) [Example 4] |  | 
 | −6.96 ± 0.20 | 0.11 ± 0.05 ×10⁻⁶ cm/s | CC[C@@H]1CN(C(=O)NCC(F)(F)F)C[C@@H]1c1cnc2cnc3[nH]ccc3n12 [Upadacitinib, reference compound] |  | 
7.38-10.08 | −5.53 ± 0.08 | 2.98 ± 0.56 ×10⁻⁶ cm/s | CCCCCCCCC(=O)OCn1ccc2c(N(C)[C@H]3CN(C(=O)CC#N)CC[C@H]3C)ncnc21 [Example 7] |  | 
8.59-15.6 | −6.01 ± 0.19 | 1.07 ± 0.39 ×10⁻⁶ cm/s | CCCCC(CC)CCC(=O)OCn1ccc2c(NC3C4CC5CC3CC(O)(C5)C4)c(C(N)=O)cnc21 (stereo not shown) [Example 13] |  | 

Compound | Multiplicity (relative to the prototype drug) | LogPe [1] | Papp at 7 h, 200 µM [2] | Papp at 7 h, 200 µM (PAMPA) | LogPe (PAMPA, 7 h, 200 µM)
CCCCCCCC(=O)OCn1ccc2c(N(C)[C@H]3CN(C(=O)CC#N)CC[C@H]3C)ncnc21 [Example 1] | 4.31-4.46 |  |  | 1.57 ± 0.5 ×10⁻⁶ cm/s | −5.80 ± 0.11
